From patent US7235401B2, “Method for determining cell cycle position” (GE Healthcare UK Limited, priority 2001, dated 2007)
Entries after “also recorded” stand apart in the source; their conditions may differ.

Experiments:
[1] = test system: U20S cells (ATCC HTB-96); assay: Effect of cell cycle blocking agents on GFP fluorescence from cell cycle phase marker using transiently transfected cells; assay type: cell-based; conditions: U20S cells transiently transfected with cyclin B1 promoter/D-box/CRS-GFP reporter; 24 hours exposure; confocal scanning imager (FIG. 5)
Method: U20S cells (ATCC HTB-96) were cultured in wells of a 96 well microtitre plate. Cells were transfected with a cell cycle reporter construct prepared according to Example 1, comprising a cyclin B1 promoter operably linked to sequences encoding the cyclin B1 D-box, the cyclin B1 CRS, and GFP in a pCORON4004 vector (Amersham Biosciences) using Fugene 6 (Roche) as the transfection agent.
Following 24 hours of culture, cells were exposed to the specific cell cycle blockers mimosine (blocks at G1/S phase boundary) or demecolcine (blocks in M phase). Control cells were exposed to culture media alone.
Cells were incubated for a further 24 hours and then analysed for nuclear GFP expression using a confocal scanning imager with automated image analysis (IN Cell Analysis System, Amersham Biosciences).

[2] = test system: U2-OS cells; assay: Effect of cell cycle inhibiting drugs on GFP expression levels, FACS analysis of stable EGFP reporter cell line; assay type: cell-based; conditions: 100 ng/ml demecolcine or 1 mM mimosine for 24 hours (FIG. 9)
Source text: The green fluorescent protein reporter sequence in the vector described in example 1 was replaced with enhanced GFP (EGFP; Cormack, B. P. et al, Gene, (1996), 173, 33–38; BD Clontech) by standard methods. The EGFP gene is a brighter form of GFP containing the mutations F64L and S65T. In addition, EGFP contains codons that have been altered to optimise expression in mammalian cells. This new construct was transfected into U2-OS cells and a number of colonies were isolated by selection with geneticin followed by sorting of single cells using a fluorescence activated cell sorter.
The cells were prepared for FACS analysis by standard methods. Briefly the cells were fixed and permeabilised using CytoFix/CytoPerm (Becton Dickinson) according to the manufacturers procedures. The cells were then treated with 50 μg/ml RNAse and 0.4% Triton X-100 and counterstained with 100 μg/ml propidium iodide. The degree of propidium iodide staining is proportional to the amount of DNA in the cell and therefore a measure of the cell cycle phase of the cell. As expected, the degree of red propidium iodide staining and the amount of green GFP fluorescence appear to be proportional in the cells.
The cells prepared in Example 5 were grown in 25 cm^2 flasks and treated with either 100 ng/ml demecolcine (Sigma) or 1 mM mimosine (Sigma) for 24 hours. The cells were then fixed, permeabilised and stained with propidium iodide as described in example 5.

| SMILES | nuclear GFP fluorescence compared to control cells [1] | cell cycle phase of arrest (FACS, propidium iodide staining) [2] | relative green fluorescence intensity (FACS, FL1H) [2] | cell cycle phase of arrest (FACS, propidium iodide staining) ([2]; listed as colchicine) | relative green fluorescence intensity (FACS, FL1H) ([2]; listed as colchicine) |
| --- | --- | --- | --- | --- | --- |
| NC(Cn1ccc(=O)c(O)c1)C(=O)O (centres unmarked) [mimosine] | decreased fluorescence | partially blocked in G1/S; also recorded: arrested at the G1/S boundary | relatively low green fluorescence |  |  |
| CN[C@H]1CCc2cc(OC)c(OC)c(OC)c2-c2ccc(OC)c(=O)cc21 [demecolcine] | increased fluorescence | arrested in G2/M | brighter than the cells that had been arrested at G1/S | blocked in G2/M | relatively high green fluorescence |
